From patent publication US5843941A, “Ras farnesyl transferase inhibitors” (Genentech, Inc., priority 1994, dated 1998)

What was measured:
[1] = target: T1, CAAX GG transferase (Rattus norvegicus, UniProt P53610+Q04631); assay: Inhibition of CAAX GG transferase (geranylgeranyltransferase); type: biochemical; settings: 31B (leucine) vs 27B (methionine); FIG. 2B
T1 construct: partially purified CAAX GG transferase; from tissue
Source text: FIG. 1 compares the inhibitory activity of compound 27B (denoted as BG269B in the figure) on protein prenyltransferases. […] Two other prenyltransferases, both of which transfer 20-carbon geranylgeranyl (GG) groups, have been identified in rat brain. One of thesse, CAAX GG transferase, attaches GG groups to proteins that terminate in CAAX sequences in which X is leucine.
The conditions used to assay the inhibition of CAAX farnesyltransferase are identical to those described above for the in vitro, assay described in Example 121. In FIG. 1B the assay mixture contained, in a final volume of 50 μl, 50 mM sodium Hepes (pH 7.2), 5 mM MgC12, 5 mM DTT, 0.3 mM Nonidet P-40, 0.2% octyl β-glucoside, 1% DMSO, 0.5 μM all trans [3H]geranylgeranyl pyrophosphate (33,000 dpm/pmol; ARC, Inc.), 5 μM recombinant p21^H-rasCVLL, 6.3 μg partially purified CAAX GG transferase (see Seabra, M. C., Reiss, Y., Casey, P. J., Brown, M. S., and Goldstein, J. L. Cell 268, 4055 (1993)) and varying concentrations of the indicated inhibitor. In FIG. 1C, the assay mixture contained in a final volume of 50 μl, 50 mM sodium Hepes (pH 7.2), 5 mM MgCl2, 5 mM DTT, 0.3 mM Nonidet P-40, 0.2% octyl β-D-glucoside, 1% DMSO, 0.5 μM all trans [3H]geranylgeranyl pyrophosphate (33,000 dpm/pmol; ARC, Inc.), 2 μM recombinant Rab1A, 2 ng each of purified Components A and B of Rab GG transferase (see Seabra, M. C., Goldstein, J. L., Sudhof, T. C., and Brown, M. S. J. Biol. Chem. 267, 14497 (1992)) and varying concentrations of the indicated inhibitor.
Each assay was carried out as described in Examples 121 and 122.

[2] = test system: nuclear lamins A and B in Met18b-2 cells; assay: [3H]mevalonate labeling of farnesylated nuclear lamins in Met18b-2 cells; type: cell-based, Chinese hamster; settings: 250 μM; FIG. 3
Source text: (§1) To study farnesylation in intact cells we used Met18b-2 cells, a line of Chinese hamster ovary (CHO) cells that takes up [3H]mevalonate efficiently (see Faust, J., and Krieger, M. J. Biol. Chem. 262, 1966 (1987)) owing to the production of a mevalonate transport protein (see Kim, C. M., Goldstein, J. L., Brown, M. S. J. Biol. Chem. 267, 23113 (1992)). The [3H]mevalonate is converted by the cells into [3H]farnesyl pyrophosphate and [3H]geranylgeranyl pyrophosphate, which are then attached to proteins (Kim, C. M., Goldstein, J. L., Brown, M. S. J. Biol. Chem. 267, 23113 (1992)). In the assay, stock cultures of Met18b-2 cells were seeded at a density of 3-105 cells per 60 mm dish in 3 ml of medium A (Dulbecco's modified Eagle medium/Ham's F12 medium (1:1, v/v) containing 100 U/ml penicillin and 100 μg/ml streptomycin) supplemented with 5% (v/v) fetal calf serum (FCS). On day 3, each monolayer was refed with 1 ml medium A supplemented with 1% FCS (dialyzed against 0.15 M NaCl). At this point the cells were treated with 100 μM compactin (see Brown, M. S., Faust, J. R., Goldstein, J. L., Kaneko, I., and Endo, A. J. Biol. Chem. 253, 1121 (1978)) which blocks the synthesis of unlabeled mevalonate within the cells. […] Protein concentrations were determined using the BCA protein assay reagent (Pierce) according to the manufacturer's instructions. […]

[3] = test system: low molecular weight GTP binding proteins (SMG) in Met18b-2 cells; assay: [3H]mevalonate labeling of low molecular weight GTP binding proteins (SMG) in Met18b-2 cells; type: cell-based, Chinese hamster; settings: 250 μM; FIG. 3
Source text: as §1, with “cells. Each compound was dissolved at 25 mM in DMSO/10 mM DTT immediately before use and 10 μl of this solution added directly. After 2 hr incubation at 37° C., each monolayer received 100 μCi [3H]mevalonate (60 Ci/mmol, American Radiolabeled Chemicals, Inc.) added in 100 μl of the medium A, and the incubation continued for 4 hr. The cells were harvested by rinsing three times with 3 ml of 50 mM Tris-HCl/0.15 M NaCl (pH 7.5). 300 μl of lysis buffer (0.5X Dulbecco's phosphate-buffered saline containing 1% Triton X-100, 5 μg/ml leupeptin, 5 μg/ml pepstatin, 0.5 mM phenylmethylsulfonyl fluoride, and 0.05 U/ml aprotinin) was added to each monolayer. After incubation on ice for 5 mon, the lysates were centrifuged 30 sec in a microfuge at 12,000 g.” for “cells.”

[4] = test system: farnesylated proteins F1, F2 and F3 in Met18b-2 cells; assay: Inhibition of intracellular farnesylation in intact Met18b-2 cells, Triton-soluble proteins F1, F2, F3; type: cell-based, Chinese hamster; settings: 250 μM; FIG. 3
Source text: To study farnesylation in intact cells we used Met18b-2 cells, a line of Chinese hamster ovary (CHO) cells that takes up [3H]mevalonate efficiently (see Faust, J., and Krieger, M. J. Biol. Chem. 262, 1966 (1987)) owing to the production of a mevalonate transport protein (see Kim, C. M., Goldstein, J. L., Brown, M. S. J. Biol. Chem. 267, 23113 (1992)). The [3H]mevalonate is converted by the cells into [3H]farnesyl pyrophosphate and [3H]geranylgeranyl pyrophosphate, which are then attached to proteins (Kim, C. M., Goldstein, J. L., Brown, M. S. J. Biol. Chem. 267, 23113 (1992)). In the assay, stock cultures of Met18b-2 cells were seeded at a density of 3-105 cells per 60 mm dish in 3 ml of medium A (Dulbecco's modified Eagle medium/Ham's F12 medium (1:1, v/v) containing 100 U/ml penicillin and 100 μg/ml streptomycin) supplemented with 5% (v/v) fetal calf serum (FCS). On day 3, each monolayer was refed with 1 ml medium A supplemented with 1% FCS (dialyzed against 0.15 M NaCl). At this point the cells were treated with 100 μM compactin (see Brown, M. S., Faust, J. R., Goldstein, J. L., Kaneko, I., and Endo, A. J. Biol. Chem. 253, 1121 (1978)) which blocks the synthesis of unlabeled mevalonate within the cells. Each compound was dissolved at 25 mM in DMSO/10 mM DTT immediately before use and 10 μl of this solution added directly. After 2 hr incubation at 37° C., each monolayer received 100 μCi [3H]mevalonate (60 Ci/mmol, American Radiolabeled Chemicals, Inc.) added in 100 μl of the medium A, and the incubation continued for 4 hr. The cells were harvested by rinsing three times with 3 ml of 50 mM Tris-HCl/0.15 M NaCl (pH 7.5). 300 μl of lysis buffer (0.5X Dulbecco's phosphate-buffered saline containing 1% Triton X-100, 5 μg/ml leupeptin, 5 μg/ml pepstatin, 0.5 mM phenylmethylsulfonyl fluoride, and 0.05 U/ml aprotinin) was added to each monolayer. After incubation on ice for 5 mon, the lysates were centrifuged 30 sec in a microfuge at 12,000 g. The resulting supernatant was tranferred to a new tube, and each pellet was resuspended in 60 μl of lysis buffer. Protein concentrations were determined using the BCA protein assay reagent (Pierce) according to the manufacturer's instructions. Detergent-soluble (supernatant) and -insoluble (pellet) samples were mixed with 2X SDS sample buffer (see Laemmli, U. K. Nature 227, 680 (1970)) and heated at 95° C. for 5 min before electrophoresis. Each lane contained 90 μg protein, and was run on a 12.5% SDS-polyacrylamide gel. The gel was dried, treated with ENTENSIFY (NEN-DuPont), and exposed to Kodak XOMAT-AR film for 9 h at -80° C. to allow visualization of all prenylated proteins. Migration of [14C]methylated molecular weight standards (Amersham) were used as markers.
The results of this assay are shown in FIG. 3, using a final concentration of 250 μM for each inhibitor. […] As shown in the figure, none of the control peptides or control benzodiazepine-peptideomimetics altered the prenylation of proteins in intact cells.
Using the same cells and procedures followed above for Example 125, we measured the dose dependence upon the inhibition of farnesylation in intact cells. […] Compound 37B inhibited the famesylation of F1-3 detectably at 10 μM, and almost completely at 25 μM.
In this manner, it is possible to obtain data regarding the comparative potency of these inhibitors upon the level of intracellular farnesylation. We have chosen to report the EC90% values for these inhibitors as the concentration required for a reduction in the Triton- soluble labelling (denoted F-1, F-2, and F-3) to 90% of control cells (untreated).

[5] = test system: untransformed parental rat-1 fibroblasts; assay: Cell growth of untransformed parental rat-1 fibroblasts; type: cell-based; settings: up to 25 μM; FIG. 7 Panel F
Experimental: (§2) To examine the effects of farnesyltransferase inhibition on cell growth, three cell lines (ras-transformed rat-1, src-transformed rat-1, and parental rat-1 cells) were seeded (see FIG. 7) at low density and allowed to grow for 10 days in the absence or presence of increasing concentrations of BZA-5B (compound 37). See Example 128 for description of cells. On day 0, cells were plated in monolayer culture at 2×10^3 cells per well (24-well plates) in 1 ml DMEM supplemented with 10% fetal calf serum, 100 U/ml penicillin, 100 μg/ml streptomycin, 0.5 mM DTT, 0.025% DMSO, and the indicated concentration of BZA-5B (compound 37). On days 3 and 7, cells were washed and refed with the same medium. At the time indicated in FIG. 7, cells were harvested by trypsinization and counted in a Coulter counter. Panels A, C, E show the growth rate of each cell line in the absence of inhibitor. Panels B, D, F show the inhibition of growth as a function of concentration of BZA-5B at each time point. The "100% values" correspond to the appropriate cell numbers in Panels A, C, E at the indicated time. Each value represents a single incubation. As shown in the panels A, C, and E, all three cell lines grew logarithmically with no added inhibitor. […] The growth of src-transformed (Panel D) and untransformed cells (Panel F) were not affected at concentrations of BZA-5B up to 25 μM.

[6] = test system: ras-transformed rat-1 fibroblasts; assay: Cell growth of ras-transformed rat-1 fibroblasts; type: cell-based; settings: Fibroblast, 240 h, 10 days, FIG. 7 Panel B
Experimental: as §2

[7] = test system: src-transformed rat-1 fibroblasts; assay: Cell growth of src-transformed rat-1 fibroblasts; type: cell-based; settings: up to 25 μM; FIG. 7 Panel D
Experimental: as §2

T1 sequence (P53610 whole entry, one chain of several): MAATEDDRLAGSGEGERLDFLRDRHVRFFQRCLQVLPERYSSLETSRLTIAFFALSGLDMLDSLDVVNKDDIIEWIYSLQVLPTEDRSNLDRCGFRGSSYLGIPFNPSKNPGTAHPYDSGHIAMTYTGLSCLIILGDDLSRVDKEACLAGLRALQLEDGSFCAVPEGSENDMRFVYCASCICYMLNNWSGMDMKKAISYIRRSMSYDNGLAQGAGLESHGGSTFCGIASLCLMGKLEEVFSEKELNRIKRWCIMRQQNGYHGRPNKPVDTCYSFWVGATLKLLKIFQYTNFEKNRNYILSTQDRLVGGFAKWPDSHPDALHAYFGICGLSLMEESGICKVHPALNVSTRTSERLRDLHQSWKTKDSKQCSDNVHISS

Row | Compound | fold more sensitivity of CAAX geranylgeranyltransferase to leucine-terminated inhibitor [1] [fold] | labeling of farnesylated lamins (F-NL) [2] | effect on low molecular weight GTP binding proteins (SMG) [3] | labeling of Triton-soluble farnesylated proteins (F1 to F3) [4] | growth of untransformed cells [5] | inhibition at 25 µM [6] [%] | growth of src-transformed cells [7]
1 | CC(C)C[C@H](NC(=O)CN1C(=O)C(N(C)C(=O)[C@@H](N)CS)N=C(c2ccccc2)c2ccccc21)C(=O)O (single isomer, unassigned) [31B, N-[[3-[(2-amino-3-mercapto-1-oxopropyl)methylamino]-2,3-dihydro-2-oxo-5-phenyl-1H -1,4-benzodiazepin-1-yl]acetyl]-L-leucine] | 5 | reduced moderately the labeling of the farnesylated lamins | little effect on the low molecular weight GTP binding proteins | markedly decreased the labeling of all three Triton-soluble farnesylated proteins (F1 to F3) | – | – | –
2 | COC(=O)[C@H](CCSC)NC(=O)CN1C(=O)C(N(C)C(=O)[C@@H](N)CS)N=C(c2ccccc2)c2ccccc21 (stereo partly shown) [BZA-5B] | – | – | – | – | not affected | ~90 | not affected
